Measurements: US20060094068A1, “Predictive markers in cancer therapy” (priority 2002, published 2006)
Entries after “also recorded” stand apart in the source; their conditions may differ.

Columns and labels:
Hb4a cells = test: Hb4a cell growth, viable cell count by trypan blue exclusion; format: cell-based, human; conditions: GW572016 2.5 μM + EGF 50 ng/ml, 72 h
Experimental: Exponentially growing Hb4a cells were cultured in 35 mm petri dishes with serum-free medium containing 1.5% BSA. […] Viable cells were counted after 72 h using trypan blue exclusion.

Erk1/2 [1] = test: Clinical trial, localisation of total Erk1/2 in tumor biopsies (IHC); conditions: patient 361, day 21; before treatment nuclear
Excerpt: Erk1/2 (1:1200), erbB3 (1:10), heregulin (1:25), and TGFα (1:20) were also immunostained using the BenchMark™ with I-VIEW detection chemistry.

Erk1/2 [2] = test: Quantitative IHC of Erk1/2 in tumor xenografts; format: in vivo, mice
Excerpt: DAB (Dako) was used as the chromogen.
Inhibition of erbB2/EGFR p-tyr in turn led to the inhibition of downstream activated, phospho-Erk1/2.

AKT [3] = test: AKT activation in HN5 cells (Western blot); format: cell-based, human; conditions: 5 μM, 24 h
cyclin D1 = test: Clinical trial, cyclin D1 in sequential tumor biopsies (quantitative IHC)
erbB2 [4] = target: T1, erbB2 (Homo sapiens, UniProt P04626); test: EGF stimulation experiment, p-Tyr/erbB2 in BT474 cells; conditions: 1 μM, 24 h, serum-free, with or without EGF 50 ng/ml
Erk1/2 [5] = test: Erk1/2 activation in HN5 cells (Western blot); format: cell-based, human
erbB2 [6] = target: T1, erbB2; test: Quantitative IHC of erbB2 in HN5 and BT474 xenografts; format: in vivo, mice; conditions: 200 mg/kg oral once daily
Erk1/2 [7] = test: p-Erk1/2 in HN5 tumor xenografts (Western blot); format: in vivo, CD-1 nude mice
Experimental: (§1) HN5 cells were grown in DMEM supplemented with 10% fetal bovine serum, sodium pyruvate and L-glutamine at 37° C. in a 95/5% air/CO2 atmosphere. […] Cells (2×10^6/mouse) in 0.2 ml were injected into the right flank of CD-1 nude mice. Female CD-1 nude mice were acquired from Charles River Laboratories. Mice were maintained in filter-topped cages in an aseptic environment with laminar flow filtered ventilation. […] Tumors were biopsied pre-treatment and 4 hours after the last dose. All animal surgery was conducted under aseptic conditions. For the initial biopsy, mice were anesthetized with isofluorane inhalation. The skin over the tumor was disinfected with iodine. A small hemostat was used to tease away the skin from the tumor, and scissors were used to make a 1 cm incision over the tumor. A scalpel and forceps were used to remove approximately 100 mg of tumor. The tumor was then frozen in liquid nitrogen. Wound clips were used to close the incision. The anesthetized mice were kept warm until they recovered mobility, usually less than 1-2 minutes. For the terminal biopsy, mice were euthanized with CO2 inhalation, and the remainder of the tumor excised. HN5 tumors were placed on dry ice in vials containing cold isopentane, nd stored at −80° C. prior to study. […]

Erk1/2 [8] = test: p-Erk1/2 in Hb4a cells (Western blot); format: cell-based, human; conditions: 72 h, GW572016 5 μM, Herceptin 10 μg/ml
Erk1/2 [9] = test: Erk1/2 activation in BT474 cells (Western blot); format: cell-based, human
AKT [10] = test: AKT phosphorylation in S1 cells; format: cell-based, human
p-AKT = test: Clinical trial, p-AKT in sequential tumor biopsies (quantitative IHC); conditions: patient 361, after 21 days of treatment
S1 cells = test: Cell cycle analysis / apoptosis in S1 cells (propidium iodide flow cytometry); conditions: 5 μM, 72 h
Experimental: Cells were harvested and fixed with 70% ethanol in PBS. Cell pellets were then resuspended in 0.5 ml PBS containing propidium iodide (50 μg/ml) and DNase-free RNase (100 μg/ml). Cell cycle analysis was performed using a BD Flow Cytometer (Becton Dickinson, San Jose, Calif., USA).
After 72 h, cell cycle analysis was performed using propidium iodide staining and flow cytometry as described in Materials and methods.

HN5 cells [11] = conditions: cited from earlier work
solid tumors = test: Clinical trial, clinical response (RECIST re-staging at eight weeks); conditions: for Clinical response at 8 weeks: 1200 mg/d
AKT [12] = test: p-AKT in HN5 tumor xenografts (Western blot); format: in vivo, CD-1 nude mice
Experimental: as §1

AKT [13] = test: AKT activation in BT474 cells (Western blot); format: cell-based, human; conditions: 1 μM, 24 h, with or without EGF
p-Erk1/2 = test: Clinical trial, p-ERK index in sequential tumor biopsies (quantitative IHC); conditions: patient 361, day 21
HN5 cells [14] = test: Apoptosis and growth arrest in HN5 cells; format: cell-based, human
erbB2 [15] = target: T1, erbB2; test: Clinical trial, erbB2 p-tyr and total erbB2 in tumor biopsies (IHC); conditions: patient 361, 1200 mg/day
[16] = test system: ERK MAP kinases and PKB/Akt; conditions: SKOV (human ovarian cancer) cells, preincubation; cited from earlier work
activated MAPK and Ki-67 = conditions: humans, phase I trials, normal skin biopsies before and after administration; cited from earlier work
[17] = 72 h, GW572016 500 nM or 1 μM, Herceptin 10 μg/ml

T1 sequence (P04626 23-1255): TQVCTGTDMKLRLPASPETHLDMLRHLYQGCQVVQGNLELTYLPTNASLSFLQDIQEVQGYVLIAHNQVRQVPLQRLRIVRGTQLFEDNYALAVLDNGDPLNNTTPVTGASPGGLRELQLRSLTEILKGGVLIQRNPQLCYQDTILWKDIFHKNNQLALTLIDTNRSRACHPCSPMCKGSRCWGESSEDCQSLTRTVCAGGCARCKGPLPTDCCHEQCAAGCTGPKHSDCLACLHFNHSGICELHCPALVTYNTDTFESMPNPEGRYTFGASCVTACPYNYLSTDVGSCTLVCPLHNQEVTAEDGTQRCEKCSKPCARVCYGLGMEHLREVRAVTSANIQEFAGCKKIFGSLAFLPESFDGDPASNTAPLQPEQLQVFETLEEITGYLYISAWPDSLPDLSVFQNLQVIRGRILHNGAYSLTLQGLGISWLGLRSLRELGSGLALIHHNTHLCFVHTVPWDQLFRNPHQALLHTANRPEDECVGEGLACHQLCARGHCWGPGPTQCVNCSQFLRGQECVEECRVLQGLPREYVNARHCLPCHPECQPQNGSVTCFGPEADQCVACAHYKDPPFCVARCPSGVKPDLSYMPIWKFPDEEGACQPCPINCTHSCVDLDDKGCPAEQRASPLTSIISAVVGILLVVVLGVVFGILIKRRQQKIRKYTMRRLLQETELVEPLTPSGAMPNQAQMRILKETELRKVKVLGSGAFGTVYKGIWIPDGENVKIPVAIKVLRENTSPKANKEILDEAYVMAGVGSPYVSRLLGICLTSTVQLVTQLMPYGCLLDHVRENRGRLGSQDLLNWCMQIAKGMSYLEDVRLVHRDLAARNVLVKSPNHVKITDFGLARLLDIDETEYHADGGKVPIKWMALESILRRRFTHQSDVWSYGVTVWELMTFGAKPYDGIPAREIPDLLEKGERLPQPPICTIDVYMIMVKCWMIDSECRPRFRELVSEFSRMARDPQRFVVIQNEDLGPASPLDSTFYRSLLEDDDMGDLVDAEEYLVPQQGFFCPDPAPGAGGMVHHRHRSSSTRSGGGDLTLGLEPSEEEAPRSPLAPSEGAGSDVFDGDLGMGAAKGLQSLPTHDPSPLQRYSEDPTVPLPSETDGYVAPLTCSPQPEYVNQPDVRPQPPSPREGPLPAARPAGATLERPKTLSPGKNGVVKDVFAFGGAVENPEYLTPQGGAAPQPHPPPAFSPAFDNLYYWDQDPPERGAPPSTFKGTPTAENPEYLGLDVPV

## CS(=O)(=O)CCNCc1ccc(-c2ccc3ncnc(Nc4ccc(OCc5cccc(F)c5)c(Cl)c4)c3c2)o1 [GW572016, N-{3-Chloro-4-[(3-fluorobenzyl)oxy]phenyl}-6-[5-({[2-(methylsulfonyl)ethyl]amino}methyl)-2-furyl]4-quinazolinamine]
Hb4a cells
  Growth inhibition with concurrent EGF: did not reverse
Erk1/2 [1]
  Localisation of total Erk1/2 protein: almost entirely cytoplasmic
Erk1/2 [2]
  Total Erk1/2 protein (IHC): unaffected
  p-Erk1/2 levels (IHC): reduced
AKT [3]
  p-AKT: inhibits baseline phosphorylation of AKT
Cyclin D1; patient 361, day 21
  Inhibition of expressed cyclin D1 protein: 90%
Cyclin D1; patient 372, day 21
  Decrease in cyclin D1: 80%
erbB2 [4]
  Baseline levels of p-Tyr/erbB2: inhibited baseline levels of p-Tyr/erbB2, an effect not reversed by EGF
Erk1/2 [5]; 5 μM, 24 h
  Downstream p-Erk1/2: inhibited downstream p-Erk1/2
Erk1/2 [5]; [17]
  p-Erk1/2 levels compared with untreated controls: inhibited p-Erk1/2
erbB2 [6]
  Activated erbB2 (IHC): inhibition of activated EGFR and erbB2 in a dose-dependent manner
  erbB2 total protein (IHC): neither EGFR nor erbB2 total protein was affected
Erk1/2 [7]; 10 mg/kg
  p-Erk1/2: little effect
Erk1/2 [7]; 30 mg/kg/dose
  p-Erk1/2: inhibited p-Erk1/2 and p-AKT
Erk1/2 [8]
  Baseline p-Erk: reduced the baseline amount of p-Tyr/erbB2 and p-Erk, effects not reversed by EGF; also recorded: decreased
Erk1/2 [9]; 1 μM, 24 h, EGF 50 ng/ml
  EGF stimulation of p-Erk1/2: inhibited EGF stimulation of p-Erk1/2
Erk1/2 [9]; [17]
  p-Erk1/2 levels compared with untreated controls: inhibited p-Erk1/2
AKT [10]
  Baseline phosphorylation of AKT: inhibits baseline phosphorylation of AKT
p-AKT
  Inhibition of p-AKT: 33%
S1 cells
  Increase in percentage of apoptotic cells vs vehicle controls: 23 fold
HN5 cells [11]
  Apoptosis (Rusnak et al.): increased only slightly
Solid tumors; patient 361, breast
  Clinical response at 8 weeks: partial responses
Solid tumors; patient 364, 1600 mg/day, at day 21 biopsy
  Sequentially biopsied metastatic lymph node: had reduced in size
Solid tumors; patient 372, breast
  Clinical response at 8 weeks: partial responses
Solid tumors; patients with >70% decrease in pERK index
  Stable Disease at eight weeks: Stable Disease: 3/5
AKT [12]; 10 mg/kg
  p-AKT: little effect
AKT [12]; 30 mg/kg/dose
  p-AKT: inhibited p-Erk1/2 and p-AKT
AKT [13]
  p-AKT (Ser 473): completely inhibited p-AKT
p-Erk1/2
  Activated Erk1/2 in re-biopsy of metastatic subcutaneous nodule: completely inhibited; also recorded: completely inactivated
HN5 cells [14]
  Growth arrest: growth arrest was seen
erbB2 [15]
  Total erbB2 protein: had no effect
erbB2 [15]; day 21
  erbB2 p-tyr: did not inhibit

## COc1cc2ncnc(Nc3ccc(F)c(Cl)c3)c2cc1OCCCN1CCOCC1 [ZD1839]
[16]
  EGF-induced increases in activation of ERK MAP kinases and PKB/Akt: block EGF-induced increases in activation of ERK MAP kinases and PKB/Akt
Activated MAPK and Ki-67
  Expression of activated MAPK and Ki-67 in keratinocytes: decreased expression of both activated MAPK and Ki-67
